# According to ChEMBL document CHEMBL4118122, “Identification and biological evaluation of thiazole-based inverse agonists of RORγt” (Bioorg Med Chem Lett, 2018):
# Columns and labels:
# Vasopressin V1a receptor = Vasopressin V1a receptor (Homo sapiens, UniProt P37288); experiment: Displacement of [3H]AVP from human recombinant V1a receptor after 60 mins by scintillation counting analysis
# [1] = target: Neuromedin-K receptor (Homo sapiens) (UniProt P29371); experiment: Displacement of [3H]SR 142801 from human recombinant NK3 receptor at 1 uM after 120 mins by scintillation counting analysis relative to control
# Sequence of Neuromedin-K receptor (Homo sapiens) (P29371 whole entry): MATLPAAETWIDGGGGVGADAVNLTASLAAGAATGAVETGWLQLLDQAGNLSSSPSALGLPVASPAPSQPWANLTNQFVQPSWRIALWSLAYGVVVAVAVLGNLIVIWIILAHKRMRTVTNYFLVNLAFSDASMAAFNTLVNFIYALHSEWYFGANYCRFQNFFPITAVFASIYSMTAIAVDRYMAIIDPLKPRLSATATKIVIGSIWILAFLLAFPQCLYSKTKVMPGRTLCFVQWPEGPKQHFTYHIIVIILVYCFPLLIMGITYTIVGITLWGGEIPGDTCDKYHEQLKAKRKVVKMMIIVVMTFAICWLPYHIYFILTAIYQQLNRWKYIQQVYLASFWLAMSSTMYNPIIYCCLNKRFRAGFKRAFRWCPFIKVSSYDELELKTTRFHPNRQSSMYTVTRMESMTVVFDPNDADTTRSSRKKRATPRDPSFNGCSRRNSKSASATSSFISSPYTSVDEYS
# [2] = target: Cyclin-dependent kinase 5/CDK5 activator 1 (Homo sapiens) (UniProt Q00535+Q15078); experiment: Inhibition of recombinant full length His-tagged human CDK5/p35 expressed in baculovirus expression system at 10 uM in presence of ATP relative to control
# Sequence of Cyclin-dependent kinase 5/CDK5 activator 1 (Homo sapiens) (Q00535 whole entry, the tested form may be a part): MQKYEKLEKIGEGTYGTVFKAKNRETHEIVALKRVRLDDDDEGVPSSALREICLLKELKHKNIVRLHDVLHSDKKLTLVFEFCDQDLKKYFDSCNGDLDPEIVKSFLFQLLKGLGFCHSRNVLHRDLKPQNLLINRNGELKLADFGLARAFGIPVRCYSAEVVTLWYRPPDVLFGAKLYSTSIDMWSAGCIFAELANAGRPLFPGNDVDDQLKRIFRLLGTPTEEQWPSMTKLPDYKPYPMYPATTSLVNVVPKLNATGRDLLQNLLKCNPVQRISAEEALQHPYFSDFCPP
# Sequence of Cyclin-dependent kinase 5/CDK5 activator 1 (Homo sapiens) (Q15078 99-307 partner limits assumed): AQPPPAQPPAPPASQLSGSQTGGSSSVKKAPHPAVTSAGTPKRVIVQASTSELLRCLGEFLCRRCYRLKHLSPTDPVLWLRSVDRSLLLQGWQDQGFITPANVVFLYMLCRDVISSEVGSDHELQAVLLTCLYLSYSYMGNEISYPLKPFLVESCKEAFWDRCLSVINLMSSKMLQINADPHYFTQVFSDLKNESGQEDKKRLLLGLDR
# [3] = target: Activin receptor type-1B (Homo sapiens) (UniProt P36896); experiment: Inhibition of recombinant GST-tagged human ACVR1B catalytic domain (150 to 505 residues) expressed in baculovirus expression system at 10 uM in presence of ATP relative to control
# Sequence of Activin receptor type-1B (Homo sapiens) (P36896 whole entry, the tested form may be a part): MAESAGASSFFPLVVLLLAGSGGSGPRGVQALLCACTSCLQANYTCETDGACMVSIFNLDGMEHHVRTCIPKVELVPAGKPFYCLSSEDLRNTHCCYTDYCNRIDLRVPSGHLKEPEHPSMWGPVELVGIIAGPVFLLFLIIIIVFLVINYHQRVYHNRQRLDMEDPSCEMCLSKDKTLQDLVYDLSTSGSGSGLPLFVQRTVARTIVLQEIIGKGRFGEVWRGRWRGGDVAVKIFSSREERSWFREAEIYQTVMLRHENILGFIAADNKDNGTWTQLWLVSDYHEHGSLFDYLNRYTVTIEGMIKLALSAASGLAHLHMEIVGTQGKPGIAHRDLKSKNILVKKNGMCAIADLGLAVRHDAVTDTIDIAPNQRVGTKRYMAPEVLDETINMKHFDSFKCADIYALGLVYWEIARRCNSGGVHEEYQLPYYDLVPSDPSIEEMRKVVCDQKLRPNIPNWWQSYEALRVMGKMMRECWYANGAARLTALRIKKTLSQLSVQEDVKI
# Melanocortin receptor 4 [4] = target: T1, Melanocortin receptor 4 (Homo sapiens, UniProt P32245); experiment: Displacement of [125I]NDP-alpha -MSH from human recombinant MC4 receptor at 10 uM after 120 mins by scintillation counting analysis relative to control
# T1 sequence (P32245 whole entry): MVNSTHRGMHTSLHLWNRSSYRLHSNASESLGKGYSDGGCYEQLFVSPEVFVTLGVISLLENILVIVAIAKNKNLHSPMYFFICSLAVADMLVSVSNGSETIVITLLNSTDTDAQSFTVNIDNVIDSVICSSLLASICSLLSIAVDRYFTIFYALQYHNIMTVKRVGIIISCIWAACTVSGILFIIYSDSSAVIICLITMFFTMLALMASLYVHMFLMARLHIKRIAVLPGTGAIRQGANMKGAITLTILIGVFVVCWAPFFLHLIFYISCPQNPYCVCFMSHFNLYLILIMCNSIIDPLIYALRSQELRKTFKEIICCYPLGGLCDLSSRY
# Adenosine receptor A2a = Adenosine receptor A2a (Homo sapiens, UniProt P29274); experiment: Displacement of [3H]-CGS 21680 from human recombinant adenosine A2A receptor at 10 uM after 120 mins by scintillation counting analysis relative to control
# Sequence of Adenosine receptor A2a (P29274 whole entry): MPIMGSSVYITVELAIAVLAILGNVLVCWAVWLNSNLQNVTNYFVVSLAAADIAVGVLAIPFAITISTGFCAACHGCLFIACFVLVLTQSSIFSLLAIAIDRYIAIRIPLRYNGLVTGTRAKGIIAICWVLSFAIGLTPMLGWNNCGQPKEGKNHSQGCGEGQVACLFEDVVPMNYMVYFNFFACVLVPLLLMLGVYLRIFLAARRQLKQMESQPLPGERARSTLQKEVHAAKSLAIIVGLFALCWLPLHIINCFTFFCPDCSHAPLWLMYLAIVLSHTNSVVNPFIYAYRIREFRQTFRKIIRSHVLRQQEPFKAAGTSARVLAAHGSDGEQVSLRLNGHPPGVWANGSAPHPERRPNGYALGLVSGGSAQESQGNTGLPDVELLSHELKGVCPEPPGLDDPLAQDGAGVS
# [5] = target: Adenosine receptor A3 (Homo sapiens) (UniProt P0DMS8); experiment: Displacement of [125I]AB-MECA from human recombinant adenosine A3 receptor at 1 uM after 120 mins by scintillation counting analysis relative to control
# Sequence of Adenosine receptor A3 (Homo sapiens) (P0DMS8 whole entry): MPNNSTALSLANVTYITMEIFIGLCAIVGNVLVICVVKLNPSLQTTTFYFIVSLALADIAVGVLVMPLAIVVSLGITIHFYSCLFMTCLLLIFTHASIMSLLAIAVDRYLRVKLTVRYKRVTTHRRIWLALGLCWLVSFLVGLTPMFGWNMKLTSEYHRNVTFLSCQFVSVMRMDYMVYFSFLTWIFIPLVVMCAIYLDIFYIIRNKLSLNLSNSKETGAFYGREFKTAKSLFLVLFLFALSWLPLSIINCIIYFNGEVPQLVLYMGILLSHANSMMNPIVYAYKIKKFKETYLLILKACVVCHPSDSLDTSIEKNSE
# Melanocortin receptor 4 [6] = target: T1, Melanocortin receptor 4; experiment: Displacement of [125I]NDP-alpha-MSH from human recombinant MC4 receptor at 1 uM after 120 mins by scintillation counting analysis relative to control
# Sequence of Vasopressin V1a receptor (P37288 whole entry): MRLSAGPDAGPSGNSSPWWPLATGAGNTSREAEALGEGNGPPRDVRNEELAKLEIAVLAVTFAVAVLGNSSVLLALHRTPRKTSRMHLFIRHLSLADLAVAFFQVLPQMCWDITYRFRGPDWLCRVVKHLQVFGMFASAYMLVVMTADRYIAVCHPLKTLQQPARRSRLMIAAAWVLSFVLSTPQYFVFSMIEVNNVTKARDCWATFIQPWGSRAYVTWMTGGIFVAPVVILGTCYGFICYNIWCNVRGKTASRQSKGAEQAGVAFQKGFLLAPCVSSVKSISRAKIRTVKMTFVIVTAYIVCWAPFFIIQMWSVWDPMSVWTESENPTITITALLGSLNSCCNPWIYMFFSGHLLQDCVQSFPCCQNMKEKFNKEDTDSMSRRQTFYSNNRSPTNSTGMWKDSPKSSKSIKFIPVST
smiles,measurement,setting,value
CC(C)(C)NS(=O)(=O)c1ccc(-c2sc(C(=O)N[C@H]3C[C@H](C(=O)O)C3)nc2CC2CCCCC2)c2ccccc12,IC50,Vasopressin V1a receptor,1.1 nM
same,inhibition,[1],< 10%
same,inhibition,[2],-4%
same,inhibition,[3],-2%
same,inhibition,Melanocortin receptor 4 [4],25%
same,inhibition,Adenosine receptor A2a,20%
same,inhibition,[5],24%
same,inhibition,Melanocortin receptor 4 [6],< 10%
